The values that follow come from ChEMBL document CHEMBL1909046, “DrugMatrix in vitro pharmacology data”.

What is called IC50 is the concentration that gives 50% inhibition.

The target of test [1] is T1, Amine oxidase [flavin-containing] A (Homo sapiens, UniProt P21397).
T1 sequence (P21397 whole entry): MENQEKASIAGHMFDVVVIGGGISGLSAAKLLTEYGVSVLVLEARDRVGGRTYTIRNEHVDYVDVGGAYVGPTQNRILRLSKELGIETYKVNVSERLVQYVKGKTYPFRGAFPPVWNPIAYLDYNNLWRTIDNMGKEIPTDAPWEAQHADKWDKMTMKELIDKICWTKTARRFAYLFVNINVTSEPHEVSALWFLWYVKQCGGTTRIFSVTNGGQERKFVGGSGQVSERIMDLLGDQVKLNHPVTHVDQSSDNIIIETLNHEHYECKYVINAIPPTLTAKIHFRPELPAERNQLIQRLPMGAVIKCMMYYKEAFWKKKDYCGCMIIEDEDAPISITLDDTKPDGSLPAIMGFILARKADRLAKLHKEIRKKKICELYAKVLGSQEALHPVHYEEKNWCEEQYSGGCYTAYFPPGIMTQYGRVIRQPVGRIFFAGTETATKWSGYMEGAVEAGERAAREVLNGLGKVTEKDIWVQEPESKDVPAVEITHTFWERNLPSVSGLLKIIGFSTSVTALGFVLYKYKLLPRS
In words: DRUGMATRIX: Monoamine Oxidase MAO-A enzyme inhibition (substrate: Kynuramine). More on the design: species or system BTI-TN-5B1-4. Conditions: Not Active = under 50% inhibition at 10 µM.

The nature of test [2]: DRUGMATRIX: Glutamate, AMPA radioligand binding (ligand: [3H] AMPA). Type of test: cell membranes, Rattus norvegicus, Wistar, Cerebral cortex, Membrane. As to conditions: Not Active = under 50% inhibition at 10 µM.
Test [3] is described as follows: DRUGMATRIX: Calcium Channel Type L, Dihydropyridine radioligand binding (ligand: [3H] Nitrendipine). Type of test: cell membranes, Rattus norvegicus, Wistar, Cerebral cortex, Membrane. Conditions: Not Active = under 50% inhibition at 10 µM.
For test [4], the target named is Sigma non-opioid intracellular receptor 1 (Homo sapiens, UniProt Q99720). In words: DRUGMATRIX: Sigma1 radioligand binding (ligand: [3H] Haloperidol). Type of test: cell membranes, Jurkat, Membrane. As to conditions: jurkat; Not Active = under 50% inhibition at 10 µM.
Chain of Sigma non-opioid intracellular receptor 1 (Q99720 whole entry): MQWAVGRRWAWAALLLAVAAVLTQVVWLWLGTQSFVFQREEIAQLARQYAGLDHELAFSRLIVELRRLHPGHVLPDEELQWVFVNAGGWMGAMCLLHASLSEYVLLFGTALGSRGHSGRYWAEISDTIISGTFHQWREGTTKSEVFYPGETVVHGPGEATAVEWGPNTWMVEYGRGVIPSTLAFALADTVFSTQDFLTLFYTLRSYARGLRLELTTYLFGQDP
The target in another test is T2, Progesterone receptor (Bos taurus, UniProt Q690N0).
T2 sequence (Q690N0 whole entry): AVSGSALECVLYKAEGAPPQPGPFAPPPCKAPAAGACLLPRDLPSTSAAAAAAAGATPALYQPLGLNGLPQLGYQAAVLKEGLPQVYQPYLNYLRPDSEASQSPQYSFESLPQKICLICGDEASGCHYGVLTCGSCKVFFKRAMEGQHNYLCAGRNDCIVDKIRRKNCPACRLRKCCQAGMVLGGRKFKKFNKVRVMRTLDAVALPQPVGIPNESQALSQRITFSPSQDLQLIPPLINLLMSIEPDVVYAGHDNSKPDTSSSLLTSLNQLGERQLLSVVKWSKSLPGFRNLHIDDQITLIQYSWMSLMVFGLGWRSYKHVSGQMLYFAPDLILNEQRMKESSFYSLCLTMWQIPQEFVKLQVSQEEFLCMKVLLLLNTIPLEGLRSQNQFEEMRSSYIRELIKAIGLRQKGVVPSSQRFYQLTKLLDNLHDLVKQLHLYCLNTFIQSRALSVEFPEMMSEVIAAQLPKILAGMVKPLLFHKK
The test is described as follows: DRUGMATRIX: Progesterone radioligand binding (ligand: [3H] R-5020). Type of test: tissue-based, Uterus. Conditions: Not Active = under 50% inhibition at 10 µM.

A short description of test [5]: DRUGMATRIX: GABAA, Chloride Channel, TBOB radioligand binding (ligand: [3H] TBOB). Type of test: cell membranes, Rattus norvegicus, Wistar, Cerebral cortex, Membrane. Conditions: Not Active = under 50% inhibition at 10 µM.

As to `CC(C)c1c(C(=O)Nc2ccccc2)c(-c2ccccc2)c(-c2ccc(F)cc2)n1CC[C@@H](O)C[C@@H](O)CC(=O)O` [ATORVASTATIN], the concentration for half-maximal inhibition (IC50) entry (in test [1] (bti-tn-5b1-4); in test [2]; in test [3]; in test [4]; on Progesterone receptor; in test [5]) was “Not Active” in each case. The Ki entry in test [2], in test [3] and in test [5] was “Not Active” in each case.

On to `CC(=O)OC[C@H]1O[C@@H](n2ncc(=O)[nH]c2=O)[C@H](OC(C)=O)[C@@H]1OC(C)=O` [AZARIBINE], for which the half-inhibitory concentration (IC50) result (in test [1] (bti-tn-5b1-4); in test [2]; in test [3]; in test [4]; on Progesterone receptor; in test [5]) was “Not Active” each time. The Ki result in test [2], in test [3] and in test [5] was “Not Active” each time.

`C[C@H]1[C@H](NC(=O)/C(=N\OC(C)(C)C(=O)O)c2csc(N)n2)C(=O)N1S(=O)(=O)O` [AZTREONAM]: the half-inhibitory concentration (IC50) result (in test [1] (bti-tn-5b1-4); in test [2]; in test [3]; in test [4]; at Progesterone receptor; in test [5]) was “Not Active” throughout. In addition, the Ki entry in test [2], in test [3] and in test [5] was “Not Active” in each case.

Turning to `O=C(O)CCNC(=O)c1ccc(/N=N/c2ccc(O)c(C(=O)O)c2)cc1` [BALSALAZIDE], the half-inhibitory concentration (IC50) result (in test [1] (bti-tn-5b1-4); in test [2]; in test [3]; in test [4]; on Progesterone receptor; in test [5]) was “Not Active” in each case. Also, the Ki result in test [2], in test [3] and in test [5] was “Not Active” each time.

For the compound `Cn1c(=O)c2c(ncn2C)n(C)c1=O` [CAFFEINE], the 50% inhibitory concentration (IC50) result (in test [1] (bti-tn-5b1-4); in test [2]; in test [3]; in test [4]; at Progesterone receptor; in test [5]) was “Not Active” each time. Further, the Ki result in test [2], in test [3] and in test [5] was “Not Active” throughout.

Turning to `ClC(Cl)(Cl)Cl` [CARBON TETRACHLORIDE], the half-inhibitory concentration (IC50) result (in test [1] (bti-tn-5b1-4); in test [2]; in test [3]; in test [4]; at Progesterone receptor; in test [5]) was “Not Active” in each case. Further, the Ki entry in test [2], in test [3] and in test [5] was “Not Active” each time.

Regarding `CO/N=C(\C(=O)N[C@@H]1C(=O)N2C(C(=O)O)=C(COC(C)=O)CS[C@H]12)c1csc(N)n1` [CEFOTAXIME], the IC50 entry (in test [1] (bti-tn-5b1-4); in test [2]; in test [3]; in test [4]; at Progesterone receptor; in test [5]) was “Not Active” throughout. The Ki entry in test [2], in test [3] and in test [5] was “Not Active” throughout.

Turning to `CNC1=Nc2ccc(Cl)cc2C(c2ccccc2)=[N+]([O-])C1` [CHLORDIAZEPOXIDE], the 50% inhibitory concentration (IC50) result (in test [1] (bti-tn-5b1-4); in test [2]; in test [3]; in test [4]; at Progesterone receptor; in test [5]) was “Not Active” in each case. Besides, the Ki entry in test [2], in test [3] and in test [5] was “Not Active” each time.

With `Cc1cc(O)cc(C)c1Cl` [CHLOROXYLENOL], the IC50 in test [1] (read-out: IC50) is 1830 nM; in test [2] it was “Not Active”; in test [3] it was “Not Active”; in test [4] it was “Not Active”; on Progesterone receptor, “Not Active”; in test [5], “Not Active”. For the same compound, the Ki entry in test [2], in test [3] and in test [5] was “Not Active” throughout.
